Measurements: patent US20100108083A1, “USE OF MEANS FOR TRAPPING CO2 IN A FILTER FOR PREVENTING INFLAMMATION, CANCER AND CARDIOVASCULAR DISEASES IN A SUBJECT EXPOSED TO TOBACCO SMOKE” (priority 2007, published 2010)

Key:
BALB/c mice [1] = test: Plethysmography (Penh value) of mice breathing air enriched in CO2; type: in vivo
Protocol: 1/ BALB/c mice were placed in a closed chamber in which the proportion of CO2, at constant proportion of oxygen, was raised artificially to 2 (atmospheric air control), 5, 10 and 15% by injection of CO2 into the chamber every other minute. At each of these concentrations, non-invasive functional testing was carried out on the mice by plethysmography, according to the technique described by Hamelmann et al. (1997) Am J Respir Crit Care Med 156: 766-775). This technique involves assessing the respiratory distress of the mice by determining the Penh (enhanced pause) value.

NF-κB p65 = test: ELISA of NF-κB p65 in the nucleus of pulmonary cells of mice after CO2 inhalation; type: in vivo; details: inhaled air with CO2 content above 10%, without decrease in oxygen, versus atmospheric air
Protocol: (§1) 2/After keeping the mice for 10 minutes in the chambers at the various concentrations of CO2 stated above, the mice were sacrificed (one hour after the start of the experiment) in order to determine the proteins β-catenin and NF-κBp65 in the nucleus of their pulmonary cells.
(§2) These two proteins are recognized markers of inflammation and of cancer. They were determined on the basis of optical density using specialized kits. β-Catenin was determined by ELISA (Catenin Enzyme Immunoassay Kit, Assay designs, Ann Arbor, Mich.) following the manufacturer's instructions. The protein NF-κB p65 was determined by another ELISA assay (TrasAM NF-κB p65 nuclear DNA based ELISA, Active Motif, Rixensart, Belgium) following the manufacturer's instructions. The values obtained, presented in the diagram in FIG. 2, are expressed relative to the total amount of proteins extracted from the cell nucleus.

β-catenin = test: ELISA of β-catenin in the nucleus of pulmonary cells of mice after CO2 inhalation; type: in vivo; details: inhaled air with CO2 content above 10%, without decrease in oxygen, versus atmospheric air
Protocol: as §1, §2

BALB/c mice [2] = details: CO2 of tobacco smoke selectively trapped by the filter, 38 minutes inhalation
Protocol: The experiment was conducted on BALB/c mice aged from 6 to 7 weeks under in vivo conditions. The number of mice used was 32 males, divided into four groups of eight. […] Each experiment lasted 38 minutes, or typically the equivalent of the consumption of 5 cigarettes by a smoker.
The mice were sacrificed after inhalation of air for 38 minutes in the four situations described above (see also the commentary of FIG. 3) and the lungs were removed immediately for analysis.
The lungs were analysed in order to measure the activity or the secretion of six proteins that are known markers of inflammation. […] These proteins are as follows: RANTES, IL-6, TNF-alpha, MIP-2, PP2A and NE-κB p65. […] Measurements of activity or of relative concentration of these proteins were performed using the following commercial kits: Mouse TNF-alpha/TNFSF1A DuoSet (ELISA assay for the concentration of TNF-alpha); Mouse CXCL2/MIP-2 DuoSet (ELISA assay for the concentration of MIP-2), Mouse CCL5/RANTES ELISpot Kit (ELISpot assay for the secretion of RANTES); Mouse IL-6 ELISpot Kit (ELISpot assay for the secretion of IL-6), all from R&D Systems (Minneapolis, Minn., USA).

O=C=O [CO2, carbon dioxide]
Penh value, level relative to control (BALB/c mice [1]; 15% CO2 in inhaled air at constant proportion of oxygen, versus atmospheric air control): 6 times
Change of Penh value (BALB/c mice [1]; proportion of CO2 changes from 10 to 15%): doubled
Expression of NF-κBp65 in lung tissues (NF-κB p65): very significant increase
Expression of β-catenin in lung tissues (β-catenin): very significant increase

[K+].[OH-] [KOH solution, potassium hydroxide]
Inflammation found in mice exposed to tobacco smoke (BALB/c mice [2]): eliminated partially or even completely
